We go through 6 compounds from patent US20120214775A1, “Pharmaceutical Salts of 3-O-(3',3'-Dimethylsuccinyl) Betulinic Acid” (priority 2004, published 2012).

≈ marks a conversion by molar mass, not a printed value. Entries after “also recorded” stand apart in the source; their conditions may differ. Counter-ions that a name gives are not always drawn. Like-named read-outs stand apart in the source and are kept apart here.

As usually defined, the solubility is how much of the substance goes into solution per volume. Low values mean a poorly soluble substance, high ones a readily soluble substance. One may read the thermodynamic solubility as solubility found after equilibrating the solid with the medium. One may read the EC50 as the midpoint of the concentration-response curve.

A short description of data set [1]: Intravenous administration of DSB in rats (reference for bioavailability). Type of data set: in vivo. The conditions noted are these: rat, plasma, dose 10.4 mg/kg, read-out: AUCINF after intravenous administration. As for the experimental part: Blood samples were collected by cardiac puncture (n=2 rats/formulation/time point) at the following times: 0.25, 0.5, 1, 2, 4, 6, 12, and 24 h. Bioavailabilities of the oral formulations were calculated as the ratio of the oral dose-adjusted AUCINF assuming proportionality of the dose adjustments to the dose adjusted AUCINF reported after intravenous administration (AUCINF=63.3 μg h/mL) from a study of DSB in rats.

Data set [2] relates to HIV-1 replication in H9 lymphocyte cells. The following applies: cited from earlier work; for T.I.: acutely infected H9 lymphocytes; for therapeutic index (T.I.) / EC50: H9 lymphocyte cells.
A short description of data set [3]: Water solubility (summary statement). The class given is physicochemical.
The nature of data set [4]: physchem. The conditions noted are these: thermodynamic from solid, Equilibrium solubility.
Data set [5] is described as follows: Equilibrium solubility in selected solvents. The following applies: for solubility thermodynamic at 7 days: organic solvent or mixture, equilibration 7 days.
The conditions of data set [6]: 25° C.
The subject of data set [7] is HIV-1 NL4-3. The data set is described as follows: In vivo anti-HIV efficacy in the SCID-hu Thy/Liv mouse model of HIV infection. The conditions noted are these: for implant p24: untreated 440; for antiviral activity against NL4-3 (in words): twice-daily oral gavage at 100 and 150 mg/kg/day, SCID-hu Thy/Liv mice.
A short description of data set [8]: physchem. The conditions noted are these: 25 °C.
Where [9] appears, read: highest dosage level (150 mg/kg/day), twice-daily oral gavage.
Where [10] appears, read: once-daily oral gavage at 100 mg/kg/day.

On to `C=C(C)[C@H]1CC[C@]2(C(=O)O)CC[C@@]3(C)[C@H](CC[C@H]4[C@@]5(C)CC[C@H](OC(=O)CC(C)(C)C(=O)O)C(C)(C)[C@H]5CC[C@]43C)[C@H]12` [DSB, 3-O-(3′,3′-dimethylsuccinyl) betulinic acid], for which, in data set [1], the AUC(0-inf) came to 63300 ng·h/mL. Moreover, the T.I. result in data set [2] is reported as “more than 970,000”. The compound further showed a solubility in data set [3] of roughly 100 µg/mL (≈ 171 µM). In addition, the solubility (thermodynamic) at 3 days was determined as 1500 µg/mL (≈ 2560 µM) in data set [4] (saline or isotonic) and 35.1 µg/mL (≈ 60 µM) in data set [4] (water).

As for `C=C(C)[C@@H]1CC[C@]2(C(=O)O)CC[C@]3(C)[C@H](CC[C@@H]4[C@@]5(C)CC[C@H](OC(=O)CC(C)(C)C(=O)O)C(C)(C)[C@@H]5CC[C@]43C)[C@@H]12` [DSB-(NmG)2, di-(N-methyl-D-glucamine) salt of 3-O-(3′,3′-dimethylsuccinyl) betulinic acid], in data set [5] (Deionized Water, equilibration 3 days), the Equilibrium solubility was greater than 18000 µg/mL. The thermodynamic solubility at 3 days in data set [5] (aqueous buffer, thermodynamic from solid, Equilibrium solubility, 1% DMSO in HERG Buffer, equilibration 3 days) is 87.1 µg/mL; in data set [5] (aqueous buffer, thermodynamic from solid, Equilibrium solubility, HERG Buffer, equilibration 3 days), 17.8 µg/mL; in data set [5] (saline or isotonic, thermodynamic from solid, Equilibrium solubility, PSS (physiological salt solution), equilibration 3 days) it was 80.2 µg/mL; in data set [5] (saline or isotonic, thermodynamic from solid, Equilibrium solubility, PSS + 0.1% DMSO, equilibration 3 days) it was 108 µg/mL; in data set [5] (saline or isotonic, thermodynamic from solid, Equilibrium solubility, PSS + 1% DMSO, equilibration 3 days) it was 108 µg/mL; in data set [5] (water, thermodynamic from solid, Equilibrium solubility, Deionized Water, equilibration 3 days), greater than 18000 µg/mL. In addition, the thermodynamic solubility at 7 days in data set [5] (thermodynamic from solid, Equilibrium solubility, Ethanol, solid may have precipitated on transfer) was 25000 µg/mL; in data set [5] (thermodynamic from solid, Equilibrium solubility, Methanol) it was 37000 µg/mL; in data set [5] (thermodynamic from solid, Equilibrium solubility, PEG 400, compound may have precipitated on removal from water bath), 5120 µg/mL; in data set [5] (thermodynamic from solid, Equilibrium solubility, Propylene glycol), greater than 255000 µg/mL. Besides, the thermodynamic solubility at 4 days in data set [5] (water, thermodynamic from solid, Equilibrium solubility, Deionized Water, equilibration 4 days) is greater than 7000 µg/mL. For the same compound, the visual solubility entry in data set [6] (basic and neutral conditions) is reported as “visibly soluble”; in data set [6] (strongly acid solutions) it was “visually insoluble”. In addition, the “implant p24” value in data set [7] (100 mg/kg/day, twice-daily oral gavage) amounted to 69 pg p24 per 10^6 cells; in data set [7] (setting [9]), 14 pg p24 per 10^6 cells. Further, the “HIV-1 RNA reduction versus untreated mice” value in data set [7] (setting [9]) was 97%. Moreover, the “MHC-I expression on CD4+CD8+ thymocytes” value in data set [7] (highest dosage level (150 mg/kg/day), untreated 530) is given as 250 mean fluorescence intensity. The “p24 reduction versus untreated mice” value in data set [7] (highest dosage level (150 mg/kg/day, started at 300), twice-daily oral gavage, 22 days, Thy/Liv implant) was determined as 99%. In addition, the “antiviral activity against NL4-3 (in words)” value in data set [7] is “potent, dose-dependent antiviral activity; also recorded: potent in vivo inhibitor of HIV-1 replication”; in data set [7] (listed as DSG-(NmG)2), “potent in vivo inhibitor of HIV-1 replication”. The solubility in data set [8] (pH 9.461, aqueous buffer) worked out at 7540 µg/mL; in data set [8] (pH 10.691, aqueous buffer), 7460 µg/mL.

Regarding `Nc1ccn([C@@H]2CS[C@H](CO)O2)c(=O)n1` [Group 3TC, lamivudine, reference compound], in data set [7] (setting [10]), the “HIV-1 RNA reduction versus untreated mice” value was determined as 96%, the “thymocyte viability (live thymocytes)” value worked out at 71% and the “implant p24” value is 35 pg p24 per 10^6 cells. In addition, in data set [7] (once-daily oral gavage at 100 mg/kg/day (positive control)), the “p24 reduction versus untreated mice” value worked out at 97%.

As for `CC(C)C1CCC2(C(=O)O)CCC3(C)C(CCC4C5(C)CCC(OC(=O)CC(C)(C)C(=O)O)C(C)(C)C5CCC43C)C12` (stereo not shown) [dihydrobetulinic acid analog], the T.I. entry in data set [2] was “more than 400,000”.

For `CC(C)[C@@H]1CC[C@]2(C(=O)O)CC[C@]3(C)C(CCC4[C@@]5(C)CC[C@H](O)C(C)(C)C5CC[C@]43C)C12` (stereo partly shown) [dihydrobetulinic acid], the “therapeutic index (T.I.)” value in data set [2] was 14. In addition, the EC50 in data set [2] (unit inferred, read-out: EC50, anti-HIV activity) is 0.9 µM.

Turning to `CC(=O)[C@@H]1CC[C@]2(C(=O)O)CC[C@]3(C)[C@H](CC[C@@H]4[C@@]5(C)CC[C@H](O)C(C)(C)[C@@H]5CC[C@]43C)[C@@H]12` [platanic acid], in data set [2], the “therapeutic index (T.I.)” value was 14. Further, the concentration giving a half-maximal response (EC50) in data set [2] (read-out: EC50, inhibitory activity against HIV-1 replication) is 6.5 µM.
